The values below come from patent US5955508A, “Method for the enhancement of lymphocyte activity against opportunistic microbial pathogens” (priority 1996, dated 1999).

Several values for one entry are separate records, joined by “and”; a condition that tells them apart may be missing. Identical values can stand only once. Entries after “also recorded” stand apart in the source; their conditions may differ.

Test [1] relates to CD4+ lymphocytes. The test can be described thus: Con A induced lymphoproliferation of PBMC (CD4+ lymphocytes). Conditions: for comparison of 5 ng/ml with 50 ng/ml d-FEN: 5 ng/ml vs 50 ng/ml. The class given is cell-based, human. From the text:
(§1) The T lymphocytes analyzed were obtained from 20 HIV+ patients (9 females and 11 males, 25-48 years of age). The patients were diagnosed as being HIV+ within the past 0.5-9 years, and 15 are being treated with antiviral drugs. The subjects' study identification number (indicates the order in which bloods were drawn), CD4+ and CD8+ counts (determined March, 1996, as part of the present study), age, sex, date of diagnosis, and pharmacotherapy are provided in Table 1.
(§2) The patients fell into one of three groups (Groups A, B and C) based on their CD4+ cell counts (the number of T helper cells/μL blood): 8 of the HIV+ patients had normal (or above normal) CD4+ levels (normal range 550-1500/μL); 4 had levels between 200-499/μL; and, 7 had CD4+ counts equal to or below 200/μL. This latter group of patients by definition have AIDS (see Table 41-3 from K. J. Ryan (Ed.), Sherris Medical Microbiology, Third Edition, Appleton & Lange:Norwalk, Conn., 1994, p. 547). These patients, moreover, have had recurrent candidiasis and other opportunistic infections which have become increasingly difficult to manage. All of the patients' CD8+ cell (cytotoxic T lymphocytes) counts were within or above normal range (300-1000/μL). We were unable to obtain enough lymphocytes from one patient (#4) to analyze their antifungal activity.
Peripheral blood (40 ml) was drawn (Mar. 29-30, 1996) from the patients on a "first come, first serve" basis when they arrived at the Ponce Center for Diagnosis and Treatment (Dr. Hiram Valazquez, Medical Director) for their monthly checkup and who volunteered their blood for experimental analysis. In addition, blood was drawn from 4 healthy HIV- volunteers in order to study their lymphoproliferation response to Con A. The lymphocytes were isolated and processed as detailed below.
(§3) The experimental protocol for this project is illustrated in Table A. Note that the cultures were exposed to two doses (5 and 50 ng/ml) of d-FEN in the mitogenesis assays, whereas only one dose (50 ng/ml) was used in the antifungal and cytokine release assays.
Cell Proliferation Analysis. Lymphoid cell suspensions were cultured in microtiter plates (Corning Glass Works, Corning, N.Y.) in the presence of 3.0 μg/ml Con-A (Pharmacia, Uppsala, Sweden) for 3 and 4 days at 37° C. d-FEN (5 and 50 ng/ml) was added the second day of culture. The cells were cultured at 2×10^5 /well in RPMI 1640 with 1% fetal bovine serum. The cells then were pulsed for 6.0 h with 1.0 μCi of [^3 H]-thymidine (DuPont-New England Nuclear Research, Boston, Mass.), harvested, and [^3 H]-thymidine incorporation determined with a liquid scintillation counter. The data are reported as a percent increase in the stimulation in dextrofenfluramine values.
The data were analyzed by a one- or two-way analysis of variance (ANOVA) with repeated measures where appropriate ([…] version 1; Jandel, San Rafael, Calif.). Significant main effects were subjected to post hoc analysis using the Student-Newman Keuls All Pairwise Multiple Comparisons test or the Mann-Whitney U test.
^A The stimulatory effect of dFEN is expressed as a percent increase
in the stimulation index of PBMCs cultured with the two doses of dFEN
versus that cultured without dFEN. The data represent the greatest
stimulation that occurred after the lymphocytes had been in culture for 3
or 4 days. The mitogenic activity of the PBMC (CD4+ lymphocytes) index of
stimulation was calculated as follows: […]

Test [2] has as its system Candida albicans. Nature of the test: Lymphocyte mediated antifungal activity against Candida albicans (growth inhibition), lymphocytes from HIV+ patients. In kind it is cell-based. Conditions: for mean change in antifungal activity: 50 ng/ml d-FEN vs no d-FEN; for Antifungal Units, d-FEN: one line per patient and Mean + SEM.
From the text: as §1, §2, §3
Isolation of Peripheral Blood Mononuclear Cells. Forty ml of venous blood were aseptically drawn into sterile 10 ml tubes containing 20 U/ml preservative free heparin, diluted with an equal volume of Hank's Balanced Salt Solution (HBSS), layered over Lymphocyte Separation Medium (LSM, Bionetics, Kensington, Md.), and centrifuged at 1,000×g for 30 min. After centrifugation, the mononuclear cell layer was recovered from the interface and washed twice in HBSS prior to further manipulation and then enumerated microscopically.
Lymphocyte Mediated Antifungal Activity Against Candida albicans: Fungal Culture. C. albicans cultures were stored at 25° C. on Sabouraud's dextrose agar (SDA) (Becton Dickinson and Co., Cockeysville, Md.). Cells used for experimentation were cultured overnight at 37° C. on SDA, collected as isolated colonies, and washed once in HBSS. Yeast cultures were enumerated microscopically. C. albicans were inoculated into RPMI 1640 medium. C. albicans hyphal forms were obtained by incubation at 37° C. with 5% CO2 in RPMI 1640. Inoculum of 2×10^5 yeast cells/ml yield approximately 100% hyphal fragments when incubated for 2 h at 37° C.
Activation of Lymphocytes. Human peripheral blood lymphocytes were placed in culture medium containing 5×10^-5 2-mercaptoethanol (2-ME) at a concentration of 2.0×10^6 cells/ml with d-FEN (50 ng/ml was added on the second day of culture) and 1,500 U/ml IL-2 (Hoffman-La Roche Inc., Nutley, N.J.) in Falcon, Multiwell plates (Becton Dickinson, Lincoln Park, N.J.) for 3 and 4 days. The cells were harvested following incubation at 37° C., overlaid onto LSM and centrifuged at 1,000×g for 20 min. The cells at the interface were washed twice with HBSS prior to assessment of functional activity.
Measurement of the Inhibition of C. albicans Growth. Fungal cells used for experimentation were collected from isolated, overnight colonies on SDA, and washed once in HBSS. Yeast were resuspended to 2×10^5 /ml in RPMI 1640 and 5×10^3 yeast placed in individual wells of 96 well flat bottom plates (Corning Glass Works, #25861, Corning, N.Y.). […]

With `CCN[C@@H](C)Cc1cccc(C(F)(F)F)c1` [d-FEN], the “mitogenesis of human controls and AIDS patients vs non-AIDS HIV+ patients” value in test [1] (5 ng/ml d-FEN) is “greater mitogenesis in the presence of 5 ng/ml d-FEN than the non-AIDS HIV+ patients”. Further, the “comparison of 5 ng/ml with 50 ng/ml d-FEN” value in test [1] is “lymphocytes obtained from human control and AIDS subjects respond better in vitro to a low (5 ng/ml) than to a high (50 ng/ml) dose; also recorded: greater lymphoproliferation in AIDS derived lymphocytes than 50 ng/ml”; in test [1] (listed as dextrofenfluramine), “more effective than 50 ng/ml”. Besides, in test [1] (50 ng/ml d-FEN), the “mitogenesis of non-AIDS HIV+ patients (Groups A+B) vs AIDS group” value is “greater mitogenesis than the AIDS group (Group C)”. Also, the “dose effect, two way ANOVA” value in test [1] (5 vs 50 ng/ml, p=0.15) was “did not reach significance”. In addition, in test [1] (Homo sapiens, Lymphocyte, 5 ng/ml d-FEN, Groups A + B (non-AIDS HIV+), Con A, read-out: Increase in Index of Stimulation, Mean ± SEM), the activation at 0.005 µg/mL came to 17 ± 8%. In addition, in test [1] (Homo sapiens, Lymphocyte, 50 ng/ml d-FEN, Groups A + B (non-AIDS HIV+), Con A, read-out: Increase in Index of Stimulation, Mean ± SEM), the activation at 0.05 µg/mL was determined as 50 ± 8%. For the same compound, the “proliferation, AIDS patient #15” value in test [1] (no detectable CD4+ cells) was “did not show any proliferation”. For the same compound, the entries for the “mean change in antifungal activity” value in test [2] (Group B) and in test [2] (Group C (AIDS)) were -13% and “+100%”, respectively. For the same compound, the “patients showing increased antifungal activity” value in test [2] (50 ng/ml d-FEN, Group A) was 7 of the 8; in test [2] (50 ng/ml d-FEN, Group C (AIDS)) it was “all 7 of the AIDS patients (Group C) evidenced increased”. Further, the “Antifungal Units, d-FEN” value in test [2] (50 ng/ml d-FEN, Group A (normal CD4+ HIV+ patients)) is 62 Antifungal Units and 84 Antifungal Units and 82 Antifungal Units and 144 Antifungal Units and 31 Antifungal Units and 60 Antifungal Units and 236 Antifungal Units and 95 ± 23 Antifungal Units; in test [2] (50 ng/ml d-FEN, Group B (CD4+ 200-499/μL)), 16 Antifungal Units and 164 Antifungal Units and 120 Antifungal Units and 75 Antifungal Units and 94 ± 32 Antifungal Units; in test [2] (50 ng/ml d-FEN, Group C (AIDS)), 130 Antifungal Units and 321 Antifungal Units and 164 Antifungal Units and 355 Antifungal Units and 307 Antifungal Units and 314 Antifungal Units and 394 Antifungal Units and 284 ± 37 Antifungal Units. Moreover, in test [2] (50 ng/ml d-FEN, Group B), the “antifungal activity response in words” value is given as “mixed response”. In addition, in test [2] (50 ng/ml d-FEN, one-way ANOVA p<0.001), the “antifungal activity of Group C vs other two groups” value is “significantly greater in the presence of d-FEN”.
